Publication PMC8063935, “Amphipathic Peptide Antibiotics with Potent Activity against Multidrug-Resistant Pathogens” (Pharmaceutics, 2021)
≈ marks a conversion by molar mass, not a printed value. Read-outs that look alike come from different tables or passages of the source. Where a SMILES comes first, the peptide text is derived from it.

Legend:
[1] = test system: P. cibarius HNCF44W (blaNDM-1 + tet(X6)); assay: MIC / IC50, micro-broth dilution; type: cell-based; settings: for MIC: micro-broth dilution, CLSI 2018, ~1.5 × 10^6 CFUs per mL, 37 °C, 16–18 h; for IC50: OD600 of micro-broth dilution plates, four-parameter fit
Experimental: (§1) The MICs of all drugs were determined by micro-broth dilution method according to CLSI 2018 guidelines. The bacterial suspension used in the experiment was appropriate 1.5 × 10^6 colony-forming units (CFUs) per mL and mixed with the drug solution in a sterilized 96-well microtiter plate (Corning, New York, USA), then incubated at 37 °C for 16–18 h. MIC value was defined as the minimum drug concentration without visible bacteria. Meanwhile, the density of the bacteria at 600 nm was measured, and the corresponding IC50 was calculated using log (inhibitor) vs. response variable slope (four parameters) in Graphpad Prism version 8.3.0 software (San Diego, CA, USA). To assess the role of ROS production in the antibacterial activity of WW307, increasing concentrations of N-acetylcysteine (NAC) from 0 to 5 mM were added in culture medium, followed by MICs test.

[2] = test system: MRSA T144; assay: microbe, parasite or virus in culture; type: cell-based, Staphylococcus aureus; settings: for MIC: micro-broth dilution, CLSI 2018, ~1.5 × 10^6 CFUs per mL, 37 °C, 16–18 h; for IC50: OD600 of micro-broth dilution plates, four-parameter fit
Experimental: as §1

[3] = test system: S. aureus G16 (RIF^R); assay: microbe, parasite or virus in culture; type: cell-based, Staphylococcus aureus; settings: for IC50: OD600 of micro-broth dilution plates, four-parameter fit
Experimental: as §1

[4] = test system: E. coli G92 (mcr-1); assay: microbe, parasite or virus in culture; type: cell-based, Escherichia coli; settings: for IC50: OD600 of micro-broth dilution plates, four-parameter fit
Experimental: as §1

[5] = test system: E. coli B2 (mcr-1 + blaNDM-5); assay: microbe, parasite or virus in culture; type: cell-based, Escherichia coli; settings: for IC50: OD600 of micro-broth dilution plates, four-parameter fit
Experimental: as §1

[6] = test system: E. coli 1F28 (tet(X4)); assay: microbe, parasite or virus in culture; type: cell-based, Escherichia coli; settings: for MIC: micro-broth dilution, CLSI 2018, ~1.5 × 10^6 CFUs per mL, 37 °C, 16–18 h; for IC50: OD600 of micro-broth dilution plates, four-parameter fit
Experimental: as §1

[7] = test system: E. coli G6 (blaNDM-5); assay: MIC / IC50, micro-broth dilution; type: cell-based, Escherichia coli; settings: for MIC: micro-broth dilution, CLSI 2018, ~1.5 × 10^6 CFUs per mL, 37 °C, 16–18 h; for IC50: OD600 of micro-broth dilution plates, four-parameter fit
Experimental: as §1

[8] = test system: E. coli CP131 (mcr-3); assay: MIC / IC50, micro-broth dilution; type: cell-based, Escherichia coli; settings: for IC50: OD600 of micro-broth dilution plates, four-parameter fit
Experimental: as §1

[9] = test system: E. coli C3 (blaNDM-1); assay: MIC / IC50, micro-broth dilution; type: cell-based, Escherichia coli; settings: for MIC: micro-broth dilution, CLSI 2018, ~1.5 × 10^6 CFUs per mL, 37 °C, 16–18 h; for IC50: OD600 of micro-broth dilution plates, four-parameter fit
Experimental: as §1

[10] = test system: A. baumannii C222 (tet(X6)); assay: microbe, parasite or virus in culture; type: cell-based, Acinetobacter baumannii; settings: for IC50: OD600 of micro-broth dilution plates, four-parameter fit
Experimental: as §1

[11] = test system: Sheep RBCs; assay: Hemolysis analysis; type: cell-based; settings: 8% sheep red blood cell suspension, 37 °C, 1 h, released hemoglobin at 576 nm; PBS negative, ddH2O positive control
Experimental: The hemolytic activity on all peptides was evaluated based on previous report. Briefly, fresh Sheep RBCs were washed twice with phosphate buffer (PBS), and then 8% red blood cell suspension was prepared. The increasing concentrations of AMPs and melittin were mixed with 8% red blood cell suspension, respectively, and incubated at 37 °C for 1 h. The sterilized PBS and double-distilled water (ddH2O) were used as blank and positive control, respectively. Afterwards, the supernatant was centrifuged to measure the absorption of released hemoglobin at 576 nm by an Infinite M200 Microplate reader (Tecan, Männedorf, Switzerland). The corresponding hemolysis rate was calculated.

[12] = Staphylococcus aureus, read-out: MIC
[13] = Escherichia coli, read-out: MIC
[14] = S. aureus G16 (RIF^R), micro-broth dilution, CLSI 2018, ~1.5 × 10^6 CFUs per mL, 37 °C, 16–18 h
[15] = E. coli G92 (mcr-1), micro-broth dilution, CLSI 2018, ~1.5 × 10^6 CFUs per mL, 37 °C, 16–18 h
[16] = E. coli B2 (mcr-1 + blaNDM-5), micro-broth dilution, CLSI 2018, ~1.5 × 10^6 CFUs per mL, 37 °C, 16–18 h
[17] = E. coli CP131 (mcr-3), micro-broth dilution, CLSI 2018, ~1.5 × 10^6 CFUs per mL, 37 °C, 16–18 h
[18] = A. baumannii C222 (tet(X6)), micro-broth dilution, CLSI 2018, ~1.5 × 10^6 CFUs per mL, 37 °C, 16–18 h

Question: Which results are given for `C[C@@H](O)[C@H]1C(=O)N2C(C(=O)O)=C(S[C@@H]3CN[C@H](C(=O)N(C)C)C3)[C@H](C)[C@H]12` [MEM, meropenem]?
Answer: MIC ([1]; read-out: MIC): > 16 µg/mL; MIC [2, 12]: 1 µg/mL (≈ 2.61 µM); MIC ([3]; Staphylococcus aureus): 2 µg/mL (≈ 5.22 µM); MIC ([4]; Escherichia coli): < 0.125 µg/mL; MIC ([5]; Escherichia coli): 32 µg/mL (≈ 83.4 µM); MIC [6, 13]: 0.25 µg/mL (≈ 0.652 µM); MIC [7, 13]: 64 µg/mL (≈ 167 µM); MIC ([8]; Escherichia coli): < 0.125 µg/mL; MIC [9, 13]: 8 µg/mL (≈ 20.9 µM); MIC ([10]; Acinetobacter baumannii): < 0.125 µg/mL

Question: For `CC[C@H](C)[C@H](NC(=O)CN)C(=O)NCC(=O)N[C@@H](C)C(=O)N[C@H](C(=O)N[C@@H](CC(C)C)C(=O)N[C@@H](CCCCN)C(=O)N[C@H](C(=O)N[C@@H](CC(C)C)C(=O)N[C@H](C(=O)N[C@H](C(=O)NCC(=O)N[C@@H](CC(C)C)C(=O)N1CCC[C@H]1C(=O)N[C@@H](C)C(=O)N[C@@H](CC(C)C)C(=O)N[C@H](C(=O)N[C@@H](CO)C(=O)N[C@@H](Cc1c[nH]c2ccccc12)C(=O)N[C@H](C(=O)N[C@@H](CCCCN)C(=O)N[C@@H](CCCNC(=N)N)C(=O)N[C@@H](CCCCN)C(=O)N[C@@H](CCCNC(=N)N)C(=O)N[C@@H](CCC(N)=O)C(=O)N[C@@H](CCC(N)=O)C(N)=O)[C@@H](C)CC)[C@@H](C)CC)[C@@H](C)O)[C@@H](C)O)C(C)C)C(C)C` [Melittin, melittin], which IC50 [1] is on record?
Answer: 2.39 µg/mL (≈ 0.84 µM)

Question: What about the MIC [1] of the same molecule?
Answer: 4 µg/mL (≈ 1.41 µM)

Question: What about the IC50 [2] of the same molecule?
Answer: 3.54 µg/mL (≈ 1.24 µM)

Question: And the MIC [2]?
Answer: 4 µg/mL (≈ 1.41 µM)

Question: What about the IC50 ([3]; S. aureus G16 (RIF^R)) of the same molecule?
Answer: 1.19 µg/mL (≈ 0.418 µM)

Question: What about the MIC [3, 14] of the same molecule?
Answer: 2 µg/mL (≈ 0.703 µM)

Question: What about the IC50 ([4]; E. coli G92 (mcr-1)) of the same molecule?
Answer: 3.55 µg/mL (≈ 1.25 µM)

Question: What about the MIC [4, 15] of the same molecule?
Answer: 4 µg/mL (≈ 1.41 µM)

Question: And the IC50 ([5]; E. coli B2 (mcr-1 + blaNDM-5))?
Answer: 4.36 µg/mL

Question: And the MIC [5, 16]?
Answer: 8 µg/mL

Question: And the IC50 [6]?
Answer: 2.62 µg/mL (≈ 0.92 µM)

Question: What about the MIC [6] of the same molecule?
Answer: 4 µg/mL (≈ 1.41 µM)

Question: What about the IC50 [7] of the same molecule?
Answer: 2.38 µg/mL (≈ 0.836 µM)

Question: What about the MIC [7] of the same molecule?
Answer: 4 µg/mL (≈ 1.41 µM)

Question: What about the IC50 ([8]; E. coli CP131 (mcr-3)) of the same molecule?
Answer: 3.39 µg/mL (≈ 1.19 µM)

Question: And the MIC [8, 17]?
Answer: 4 µg/mL (≈ 1.41 µM)

Question: And the IC50 [9]?
Answer: 5.03 µg/mL (≈ 1.77 µM)

Question: And the MIC [9]?
Answer: 8 µg/mL (≈ 2.81 µM)

Question: What about the “HL50 (peptide concentration that causes 50% hemolysis)” value [11] of the same molecule?
Answer: 14.39 µg/mL

Question: And the IC50 ([10]; A. baumannii C222 (tet(X6)))?
Answer: 4.16 µg/mL (≈ 1.46 µM)

Question: What about the MIC [10, 18] of the same molecule?
Answer: 8 µg/mL (≈ 2.81 µM)

Question: How did the MIC ([1]; read-out: MIC) turn out when `CN(C)c1cc(NC(=O)CNC(C)(C)C)c(O)c2c1C[C@H]1C[C@H]3[C@H](N(C)C)C(O)=C(C(N)=O)C(=O)[C@@]3(O)C(O)=C1C2=O` [TIG, tigecycline] was run?
Answer: 64 µg/mL (≈ 109 µM)

Question: And the MIC [2, 12]?
Answer: 0.25 µg/mL (≈ 0.427 µM)

Question: And the MIC ([3]; Staphylococcus aureus)?
Answer: < 0.0625 µg/mL

Question: And the MIC ([4]; Escherichia coli)?
Answer: 4 µg/mL (≈ 6.83 µM)

Question: What about the MIC [6, 13] of the same molecule?
Answer: 16 µg/mL (≈ 27.3 µM)

Question: And the MIC [7, 13]?
Answer: 2 µg/mL (≈ 3.41 µM)

Question: What about the MIC ([8]; Escherichia coli, E. coli CP131 (mcr-3), micro-broth dilution, CLSI 2018, ~1.5 × 10^6 CFUs per mL, 37 °C, 16–18 h, read-out: MIC) of the same molecule?
Answer: 2 µg/mL (≈ 3.41 µM)

Question: And the MIC [9, 13]?
Answer: 2 µg/mL (≈ 3.41 µM)

Question: And the MIC ([10]; Acinetobacter baumannii)?
Answer: 64 µg/mL (≈ 109 µM)

Question: What does the source list for `CC(C)C[C@H](NC(=O)[C@H](Cc1c[nH]c2ccccc12)NC(=O)[C@H](Cc1c[nH]c2ccccc12)NC(=O)[C@@H](N)Cc1c[nH]c2ccccc12)C(=O)N[C@@H](CCCNC(=N)N)C(=O)N[C@@H](CCCNC(=N)N)C(=O)N[C@@H](CCCNC(=N)N)C(=O)N[C@@H](Cc1c[nH]c2ccccc12)C(N)=O` [WW304] (H-WWWLRRRW-NH2)?
Answer: IC50 [1]: 33.60 µg/mL (≈ 25 µM); MIC [1]: 64 µg/mL (≈ 47.6 µM); IC50 [2]: 4.59 µg/mL (≈ 3.42 µM); MIC [2]: 8 µg/mL (≈ 5.95 µM); IC50 ([3]; S. aureus G16 (RIF^R)): 2.11 µg/mL (≈ 1.57 µM); MIC [3, 14]: 8 µg/mL (≈ 5.95 µM); IC50 ([4]; E. coli G92 (mcr-1)): 31.96 µg/mL (≈ 23.8 µM); MIC [4, 15]: 64 µg/mL (≈ 47.6 µM); IC50 ([5]; E. coli B2 (mcr-1 + blaNDM-5)): 36.12 µg/mL; MIC [5, 16]: 64 µg/mL; IC50 [6]: 18.13 µg/mL (≈ 13.5 µM); MIC [6]: 32 µg/mL (≈ 23.8 µM); IC50 [7]: 36.04 µg/mL (≈ 26.8 µM); MIC [7]: 64 µg/mL (≈ 47.6 µM); IC50 ([8]; E. coli CP131 (mcr-3)): 18.26 µg/mL (≈ 13.6 µM); MIC [8, 17]: 32 µg/mL (≈ 23.8 µM); IC50 [9]: 34.76 µg/mL (≈ 25.9 µM); MIC [9]: 64 µg/mL (≈ 47.6 µM); HL50 (peptide concentration that causes 50% hemolysis) [11]: > 128 µg/mL; IC50 ([10]; A. baumannii C222 (tet(X6))): 34.74 µg/mL (≈ 25.9 µM); MIC [10, 18]: 64 µg/mL (≈ 47.6 µM)

Question: With colistin as the molecule, how does the MIC [1] read?
Answer: >256 µg/mL

Question: What about the MIC [2] of the same molecule?
Answer: 16 µg/mL

Question: And the MIC [3, 14]?
Answer: 1 µg/mL

Question: And the MIC [4, 15]?
Answer: 4 µg/mL

Question: What about the MIC [5, 16] of the same molecule?
Answer: 8 µg/mL

Question: What about the MIC [6] of the same molecule?
Answer: 0.125 µg/mL

Question: And the MIC [7]?
Answer: 0.5 µg/mL

Question: And the MIC [8, 17]?
Answer: 4 µg/mL

Question: What about the MIC [9] of the same molecule?
Answer: <0.125 µg/mL

Question: What about the MIC [10, 18] of the same molecule?
Answer: <0.125 µg/mL
